# Source: patent US20080090845A1, “Haloalkyl-substituted pyrimidinone derivatives” (Neurogen Corporation, priority 2006, published 2008)
# Molecular target: T1, human capsaicin receptor (Homo sapiens, UniProt Q8NER1)
# T1 construct: pBK-CMV expression construct encoding the full length human capsaicin receptor; expressed in transfected cells
# Assay: Calcium mobilization assay, determination of antagonist activity (Example 6)
# Type: cell-based
# Conditions: cells expressing human capsaicin receptor, capsaicin-induced fluorescence response; read-out: IC50
# Protocol: A cDNA encoding full length human capsaicin receptor (SEQ ID NO:1, 2 or 3 of U.S. Pat. No. 6,482,611) is subcloned in the plasmid pBK-CMV (Stratagene, La Jolla, Calif.) for recombinant expression in mammalian cells.
# Human embryonic kidney (HEK293) cells are transfected with the pBK-CMV expression construct encoding the full length human capsaicin receptor using standard methods. The transfected cells are selected for two weeks in media containing G418 (400 μg/ml) to obtain a pool of stably transfected cells. Independent clones are isolated from this pool by limiting dilution to obtain clonal stable cell lines for use in subsequent experiments.
# Cells transfected with expression plasmids (as described in Example 4) and thereby expressing human capsaicin receptor are seeded and grown to 70-90% confluency in FALCON black-walled, clear-bottomed 96-well plates (#3904, BECTON-DICKINSON, Franklin Lakes, N.J.). The culture medium is emptied from the 96 well plates and FLUO-3 AM calcium sensitive dye (Molecular Probes, Eugene, Oreg.) is added to each well (dye solution: 1 mg FLUO-3 AM, 440 μl DMSO and 440 μl 20% pluronic acid in DMSO diluted 1:250 in Krebs-Ringer HEPES (KRH) buffer (25 mM HEPES, 5 mM KCl, 0.96 mM NaH2PO4, 1 mM MgSO4, 2 mM CaCl2, 5 mM glucose, 1 mM probenecid, pH 7.4), 50 μl diluted solution per well). Plates are covered with aluminum foil and incubated at 37° C. for 1-2 hours in an environment containing 5% CO2. After the incubation, the dye is emptied from the plates, and the cells are washed once with KRH buffer, and resuspended in KRH buffer.
# To measure the ability of a test compound to agonize or antagonize a calcium mobilization response in cells expressing capsaicin receptors to capsaicin or other vanilloid agonist, the EC50 of the agonist capsaicin is first determined. An additional 20 μl of KRH buffer and 1 μl DMSO is added to each well of cells, prepared as described above. 100 μl capsaicin in KRH buffer is automatically transferred by the FLIPR instrument to each well. Capsaicin-induced calcium mobilization is monitored using either FLUOROSKAN ASCENT (Labsystems; Franklin, Mass.) or FLIPR (fluorometric imaging plate reader system; Molecular Devices, Sunnyvale, Calif.) instruments. Data obtained between 30 and 60 seconds after agonist application are used to generate an 8-point concentration response curve, with final capsaicin concentrations of 1 nM to 3 μM. KALEIDAGRAPH software (Synergy Software, Reading, Pa.) is used to fit the data to the equation: y=a*(1/(1+(b/x)^c)) to determine the 50% excitatory concentration (EC50) for the response. In this equation, y is the maximum fluorescence signal, x is the concentration of the agonist or antagonist (in this case, capsaicin), a is the Emax, b corresponds to the EC50 value and c is the Hill coefficient. Determination of Agonist Activity
# Test compounds are dissolved in DMSO, diluted in 20 μl KRH buffer so that the final concentration of test compounds in the assay well is between 1 μM and 5 μM, and added to cells prepared as described above. The 96 well plates containing prepared cells and test compounds are incubated in the dark, at room temperature for 0.5 to 6 hours. It is important that the incubation not continue beyond 6 hours. Just prior to determining the fluorescence response, 100 μl capsaicin in KRH buffer at twice the EC50 concentration determined as described above is automatically added by the FLIPR instrument to each well of the 96 well plate for a final sample volume of 200 μl and a final capsaicin concentration equal to the EC50. The final concentration of test compounds in the assay wells is between 1 μM and 5 μM. […] The concentration of antagonist required to provide a 50% decrease, relative to the response observed in the presence of capsaicin and without antagonist, is the IC50 for the antagonist, and is preferably below 1 micromolar, 100 nanomolar, 10 nanomolar or 1 nanomolar.
# T1 sequence (Q8NER1 whole entry): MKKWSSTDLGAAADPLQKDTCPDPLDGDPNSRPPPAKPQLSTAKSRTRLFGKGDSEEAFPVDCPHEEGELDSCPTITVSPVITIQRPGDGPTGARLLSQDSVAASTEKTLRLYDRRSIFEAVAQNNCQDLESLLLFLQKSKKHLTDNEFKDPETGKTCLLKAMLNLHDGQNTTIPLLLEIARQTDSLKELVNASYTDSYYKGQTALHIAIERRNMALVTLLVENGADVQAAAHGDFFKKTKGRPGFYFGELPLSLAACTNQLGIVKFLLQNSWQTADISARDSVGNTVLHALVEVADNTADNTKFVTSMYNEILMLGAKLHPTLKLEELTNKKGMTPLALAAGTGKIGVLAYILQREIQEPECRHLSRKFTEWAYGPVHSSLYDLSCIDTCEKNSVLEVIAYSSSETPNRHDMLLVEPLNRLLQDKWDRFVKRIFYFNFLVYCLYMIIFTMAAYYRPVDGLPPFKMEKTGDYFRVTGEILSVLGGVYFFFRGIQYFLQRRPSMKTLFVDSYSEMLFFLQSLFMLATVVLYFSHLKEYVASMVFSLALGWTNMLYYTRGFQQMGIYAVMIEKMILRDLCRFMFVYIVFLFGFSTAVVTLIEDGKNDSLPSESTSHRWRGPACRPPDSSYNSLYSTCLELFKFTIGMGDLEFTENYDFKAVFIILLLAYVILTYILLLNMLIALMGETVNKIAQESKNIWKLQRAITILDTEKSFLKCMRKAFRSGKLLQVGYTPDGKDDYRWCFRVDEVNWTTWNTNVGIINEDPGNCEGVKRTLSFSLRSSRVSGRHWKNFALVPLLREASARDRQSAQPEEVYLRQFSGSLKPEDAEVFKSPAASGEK
row,Compound,IC50 [nM]
1,"CCn1cnc2c(=O)n(-c3ccc(Cl)cc3)c(CC(C)C(F)(F)F)nc21 (stereo not shown) [Compound 8, 1-(4-chlorophenyl)-9-ethyl-2-(3,3,3-trifluoro-2-methylpropyl)-1,9-dihydro-6H-purin-6-one]",≤ 100
2,"CC(Cc1nc2c(ncn2C)c(=O)n1-c1ccc(Cl)cc1)C(F)(F)F (stereo not shown) [Compound 9, 1-(4-chlorophenyl)-9-methyl-2-(3,3,3-trifluoro-2-methylpropyl)-1,9-dihydro-6H-purin-6-one]",≤ 100
3,"CCn1cnc2c(=O)n(-c3ccc(F)cc3)c(CC(C)C(F)(F)F)nc21 (stereo not shown) [Compound 10, 9-ethyl-1-(4-fluorophenyl)-2-(3,3,3-trifluoro-2-methylpropyl)-1,9-dihydro-6H-purin-6-one]",≤ 100
4,"CCn1cnc2c(=O)n(-c3ccc(Cl)cc3)c(CC(C)CC(F)(F)F)nc21 (stereo not shown) [Compound 11, 1-(4-chlorophenyl)-9-ethyl-2-(4,4,4-trifluoro-2-methylbutyl)-1,9-dihydro-6H-purin-6-one]",≤ 100
5,"CC(Cc1nc2c(ncn2C)c(=O)n1-c1ccc(Cl)cc1)CC(F)(F)F (stereo not shown) [Compound 12, 1-(4-chlorophenyl)-9-methyl-2-(4,4,4-trifluoro-2-methylbutyl)-1,9-dihydro-6H-purin-6-one]",≤ 100
6,"CCn1cnc2c(=O)n(-c3ccc(F)cc3)c(CC(C)CC(F)(F)F)nc21 (stereo not shown) [Compound 13, 9-ethyl-1-(4-fluorophenyl)-2-(4,4,4-trifluoro-2-methylbutyl)-1,9-dihydro-6H-purin-6-one]",≤ 100
7,"CC(Cc1nc2c(ncn2C)c(=O)n1-c1ccc(F)cc1)CC(F)(F)F (stereo not shown) [Compound 14, 1-(4-fluorophenyl)-9-methyl-2-(4,4,4-trifluoro-2-methylbutyl)-1,9-dihydro-6H-purin-6-one]",≤ 100
8,"CC(Cc1nc2c(ncn2C2CC2)c(=O)n1-c1ccc(Cl)cc1)CC(F)(F)F (stereo not shown) [Compound 15, 1-(4-chlorophenyl)-9-cyclopropyl-2-(4,4,4-trifluoro-2-methylbutyl)-1,9-dihydro-6H-purin-6-one]",≤ 100
9,"CCn1cnc2c(=O)n(-c3ccc(Cl)cc3)c(CCC(C)C(F)(F)F)nc21 (stereo not shown) [Compound 16, 1-(4-chlorophenyl)-9-ethyl-2-(4,4,4-trifluoro-3-methylbutyl)-1,9-dihydro-6H-purin-6-one]",≤ 100
10,"CC(CCc1nc2c(ncn2C)c(=O)n1-c1ccc(Cl)cc1)C(F)(F)F (stereo not shown) [Compound 17, 1-(4-chlorophenyl)-9-methyl-2-(4,4,4-trifluoro-3-methylbutyl)-1,9-dihydro-6H-purin-6-one]",≤ 100
11,"CCn1cnc2c(=O)n(-c3ccc(F)cc3)c(CCC(C)C(F)(F)F)nc21 (stereo not shown) [Compound 18, 9-ethyl-1-(4-fluorophenyl)-2-(4,4,4-trifluoro-3-methylbutyl)-1,9-dihydro-6H-purin-6-one]",≤ 100
12,"CC(CCc1nc2c(ncn2C)c(=O)n1-c1ccc(F)cc1)C(F)(F)F (stereo not shown) [Compound 19, 1-(4-fluorophenyl)-9-methyl-2-(4,4,4-trifluoro-3-methylbutyl)-1,9-dihydro-6H-purin-6-one]",≤ 100
13,"CC(Cc1nc2c(ncn2CC(F)(F)F)c(=O)n1-c1ccc(Cl)cc1)CC(F)(F)F (stereo not shown) [Compound 20, 1-(4-chlorophenyl)-9-(2,2,2-trifluoroethyl)-2-(4,4,4-trifluoro-2-methylbutyl)-1,9-dihydro-6H-purin-6-one]",≤ 100
14,"CC(Cc1nc2c(ncn2CC(F)F)c(=O)n1-c1ccc(Cl)cc1)CC(F)(F)F (stereo not shown) [Compound 21, 1-(4-chlorophenyl)-9-(2,2-difluoroethyl)-2-(4,4,4-trifluoro-2-methylbutyl)-1,9-dihydro-6H-purin-6-one]",≤ 100
15,"CC(Cc1nc2c(ncn2CC(F)F)c(=O)n1-c1ccc(Cl)cc1)C(F)(F)F (stereo not shown) [Compound 22, 1-(4-chlorophenyl)-9-(2,2-difluoroethyl)-2-(3,3,3-trifluoro-2-methylpropyl)-1,9-dihydro-6H-purin-6-one]",≤ 100
16,"CC(CCc1nc2c(ncn2CC(F)F)c(=O)n1-c1ccc(Cl)cc1)C(F)(F)F (stereo not shown) [Compound 23, 1-(4-chlorophenyl)-9-(2,2-difluoroethyl)-2-(4,4,4-trifluoro-3-methylbutyl)-1,9-dihydro-6H-purin-6-one]",≤ 100
17,"CC(Cc1nc2c(ncn2CC(F)(F)F)c(=O)n1-c1ccc(Cl)cc1)C(F)(F)F (stereo not shown) [Compound 24, 1-(4-chlorophenyl)-9-(2,2,2-trifluoroethyl)-2-(3,3,3-trifluoro-2-methylpropyl)-1,9-dihydro-6H-purin-6-one]",≤ 100
18,"CC(CCc1nc2c(ncn2CC(F)(F)F)c(=O)n1-c1ccc(Cl)cc1)C(F)(F)F (stereo not shown) [Compound 25, 1-(4-chlorophenyl)-9-(2,2,2-trifluoroethyl)-2-(4,4,4-trifluoro-3-methylbutyl)-1,9-dihydro-6H-purin-6-one]",≤ 100
19,"CC(Cc1nc2c(ncn2CC(F)F)c(=O)n1-c1ccc(F)cc1)CC(F)(F)F (stereo not shown) [Compound 26, 9-(2,2-difluoroethyl)-1-(4-fluorophenyl)-2-(4,4,4-trifluoro-2-methylbutyl)-1,9-dihydro-6H-purin-6-one]",≤ 100
20,"CC(CCc1nc2c(ncn2CC(F)F)c(=O)n1-c1ccc(F)cc1)C(F)(F)F (stereo not shown) [Compound 27, 9-(2,2-difluoroethyl)-1-(4-fluorophenyl)-2-(4,4,4-trifluoro-3-methylbutyl)-1,9-dihydro-6H-purin-6-one]",≤ 100
21,"CC(CCc1nc2c(ncn2C)c(=O)n1-c1ccc(C#N)cc1)C(F)(F)F (stereo not shown) [Compound 28, 4-[9-methyl-6-oxo-2-(4,4,4-trifluoro-3-methylbutyl)-6,9-dihydro-1H-purin-1-yl]benzonitrile]",≤ 100
22,"CC(Cc1nc2c(ncn2C)c(=O)n1-c1ccc(C#N)cc1)CC(F)(F)F (stereo not shown) [Compound 29, 4-[9-methyl-6-oxo-2-(4,4,4-trifluoro-2-methylbutyl)-6,9-dihydro-1H-purin-1-yl]benzonitrile]",≤ 100
23,"C[C@H](Cc1nc2c(ncn2C)c(=O)n1-c1ccc(Cl)cc1)CC(F)(F)F [Compound 30, 1-(4-chlorophenyl)-9-methyl-2-[(2R)-4,4,4-trifluoro-2-methylbutyl]-1,9-dihydro-6H-purin-6-one]",≤ 100
24,"CCn1cnc2c(=O)n(-c3ccc(C#N)cc3)c(CC(C)CC(F)(F)F)nc21 (stereo not shown) [Compound 31, 4-[9-ethyl-6-oxo-2-(4,4,4-trifluoro-2-methylbutyl)-6,9-dihydro-1H-purin-1-yl]benzonitrile]",≤ 100
25,"C[C@@H](CCc1nc2c(ncn2C)c(=O)n1-c1ccc(Cl)cc1)C(F)(F)F [Compound 32, 1-(4-chlorophenyl)-9-methyl-2-[(3S)-4,4,4-fluoro-3-methylbutyl]-1,9-dihydro-6H-purin-6-one]",≤ 100
26,"C[C@H](CCc1nc2c(ncn2C)c(=O)n1-c1ccc(Cl)cc1)C(F)(F)F [Compound 33, 1-(4-chlorophenyl)-9-methyl-2-[(3R)-4,4,4-fluoro-3-methylbutyl]-1,9-dihydro-6H-purin-6-one]",≤ 100

# Same assay, conditions: cells expressing human capsaicin receptor, capsaicin-induced fluorescence response; read-out: IC50 determined as described in Example 6
row,Compound,IC50 [nM]
1,"C[C@H](Cc1nc2c(ncn2C)c(=O)n1-c1ccc(Cl)cc1)C(F)(F)F [Compound 6, (R)-1-(4-Chlorophenyl)-9-methyl-2-(3,3,3-trifluoro-2-methylpropyl)-1H-purin-6(9H)-one]",≤ 100
2,"CCn1cnc2c(=O)n(-c3ccc(Cl)nc3)c(CC(C)C(F)(F)F)nc21 (stereo not shown) [Compound 7, 1-(6-chloropyridin-3-yl)-9-ethyl-2-(3,3,3-trifluoro-2-methylpropyl)-1,9-dihydro-6H-purin-6-one]",≤ 100
